Source: patent publication US6603023B2 (priority 1996, dated 2003)
pIC50: −log10 of the molar value. Values joined by “and” are separate entries in the source; they are usually repeats but may differ in a detail not shown here. Identical values can stand only once. Counter-ions that a name gives are not always drawn. Like-named read-outs stand apart in the source and are kept apart here.

Tests used:
[1] = test system: CCRF-CEM human T-cell acute lymphoblastic leukemia cell line; assay: XTT cytotoxicity (cell growth inhibition), CCRF-CEM
Outline: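 Suspension leukemic cells (CCRF-CEM, P388 and drug-resistant sublines kept under the selecting agent) were seeded at 5×10^4 cells/mL in RPMI-1640 with 10% FBS at 37 °C. After 72 h drug exposure in duplicate, PMS-XTT was added for 4 h. Absorbance was read at 450 and 630 nm.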

Human CCRF-CEM Xenograft = assay: CCRF-CEM xenograft in scid mice; format: in vivo, CB-17 scid mice
[2] = test system: Human CCRF-CEM/VBL Xenograft; assay: CCRF-CEM/VBL xenograft in scid mice; format: in vivo, CB-17 scid mice
[3] = test system: PC-3 Human Prostate Carcinoma; assay: PC-3 xenograft; format: in vivo, nude mice; details: dEpoB 30 mg/kg 18 hr i.v. infusion, Taxol 16 mg/kg 6 hr infusion, VBL 2 and VP-16 25 mg/kg i.v. inj
[4] = test system: A549 Human Lung Carcinoma; assay: A549 xenograft; format: in vivo, nude mice; details: Q2D x 3: dEpoB 30 mg/kg 18 hr i.v. infusion, Taxol 15 mg/kg 6 hr infusion, VBL 2 and VP-16 25 mg/kg i.v. inj
[5] = dose 0.2 i.p. QD d7-10,14,15, day 7
[6] = dose 0.2 i.p. QD d7-10,14,15, day 12
[7] = dose 0.2 i.p. QD d7-10,14,15, day 17
[8] = dose 0.2 i.p. QD d7-10,14,15, day 22
[9] = dose 0.4 i.p. QD d7-10,14,15, day 7
[10] = dose 0.4 i.p. QD d7-10,14,15, day 12
[11] = dose 0.4 i.p. QD d7-10,14,15, day 17
[12] = dose 0.4 i.p. QD d7-10,14,15, day 22

CC[C@]1(O)C[C@@H]2CN(CCc3c([nH]c4ccccc34)[C@@](C(=O)OC)(c3cc4c(cc3OC)N(C)[C@H]3[C@@](O)(C(=O)OC)[C@H](OC(C)=O)[C@]5(CC)C=CCN6CC[C@]43[C@@H]65)C2)C1 [Vinblastine, Vinblastine sulfate]
pIC50 ([1]; Homo sapiens, CCRF-CEM): 9.20 | pIC50 ([1]; Homo sapiens, CCRF-CEM, 72 h, Table 1A, XTT): 8.20 | pIC50 ([1]; Homo sapiens, CCRF-CEM, Table 2): 9.17 | pIC50 ([1]; Homo sapiens, CCRF-CEM, Table 5, single determinations): 9.10 | pIC50 ([1]; Homo sapiens, CCRF-CEM, read-out: IC50 (mean ± of determinations, in parentheses), Table 5): 9.20 | pIC50 ([1]; Table 5, single determinations): 9.22 and 9.30 | Average weight change (Human CCRF-CEM Xenograft; [5]): +0.2 | Average tumor volume (control = 1.00) (Human CCRF-CEM Xenograft; [6]): 0.45 | Average weight change (Human CCRF-CEM Xenograft; [6]): −0.8 | Average tumor volume (control = 1.00) (Human CCRF-CEM Xenograft; [7]): 0.25 | Average weight change (Human CCRF-CEM Xenograft; [7]): −1.5 | Average tumor volume (control = 1.00) (Human CCRF-CEM Xenograft; [8]): 0.29 | Average weight change (Human CCRF-CEM Xenograft; [8]): −0.3 | Average weight change (Human CCRF-CEM Xenograft; [9]): −0.1 | Average tumor volume (control = 1.00) (Human CCRF-CEM Xenograft; [10]): 0.31 | Average weight change (Human CCRF-CEM Xenograft; [10]): −1.4 | Average tumor volume (control = 1.00) (Human CCRF-CEM Xenograft; [11]): 0.27 | Average weight change (Human CCRF-CEM Xenograft; [11]): −1.8 | Average tumor volume (control = 1.00) (Human CCRF-CEM Xenograft; [12]): 0.30 | Average weight change (Human CCRF-CEM Xenograft; [12]): −0.7 | Average weight change [2, 5]: −0.3 | Average tumor volume (control = 1.00) [2, 6]: 0.86 | Average weight change [2, 6]: −0.8 | Average tumor volume (control = 1.00) [2, 7]: 0.66 | Average weight change [2, 7]: −1.4 | Average tumor volume (control = 1.00) [2, 8]: 0.67 | Average weight change [2, 8]: −0.3 | Average weight change [2, 9]: 0 | Average tumor volume (control = 1.00) [2, 10]: 1.02 | Average weight change [2, 10]: −1.2 | Average tumor volume (control = 1.00) [2, 11]: 0.57 | Average weight change [2, 11]: −1.8 | Average tumor volume (control = 1.00) [2, 12]: 0.62 | Average weight change [2, 12]: −0.5 | Average Body Weight (change), Day 9 [3]: +1.4 g | Average Body Weight (change), Day 11 [3]: +2.1 g | Average Body Weight (change), Day 13 [3]: +3.0 g | Average Tumor Size (TC), Day 9 [3]: 0.37 TC | Average Tumor Size (TC), Day 11 [3]: 0.13 TC | Average Tumor Size (TC), Day 13 [3]: 0.03 TC | Tumor Disappearance [3]: 1/3 | Average Body Weight, Day 5 ([3]; initial weight): 23.5 g | Average Body Weight (change), Day 13 [4]: +2.3 g | Average Body Weight (change), Day 15 [4]: +3.2 g | Tumor Disappearance [4]: 2/3 | Average Tumor Size, Day 11 ([4]; control 96): 11 mm^3 | Average Tumor Size, Day 13 ([4]; control 128): 11 mm^3 | Average Tumor Size, Day 15 ([4]; control 306): 11 mm^3 | Average Tumor Size, Day 17 ([4]; control 553): 7 mm^3 | Average Body Weight, Day 7 ([4]; initial weight): 25.5 g
